According to US6225321A (priority 1997, dated 2001):
“And” between values parts separate entries of the source, which are not always exact repeats. Equal values may be shown once. Read-outs that look alike come from different tables or passages of the source.

Assays:
[1] = Half-life / conversion of dinalbuphine sebacoyl ester in rat blood; format: in vitro ADME; details: for Elimination half-life: n = 3, mean ± S.E.
Procedure: (a) Dinalbuphine sebacoyl ester(SDN) was dissolved in acetonitrile, the concentration was 7.75 mg/ml.
(b) […] of whole blood was collected from rats given dinalbuphine sebacoyl ester, and anticoagulant was added.

[2] = Half-life / conversion of dinalbuphine sebacoyl ester in rabbit blood; format: in vitro ADME; details: for Elimination half-life: n = 3, mean ± S.E.
Procedure: II. For Rabbit Experiments
(a) Dinalbuphine ester sebacoyl ester was dissolved in acetonitrile, the concentration was 5.2 mg/ml.
(b) 150 ml of whole blood collected from rats given dinalbuphine sebacoyl ester, and anticoagulant was added.

[3] = Half-life / conversion of dinalbuphine sebacoyl ester in dog blood; format: in vitro ADME; details: for Elimination half-life: n = 3, mean ± S.E.
Procedure: (a) Dinalbuphine sebacoyl ester was dissolved in acetonitrile, the concentration was 12.5 mg/ml.
(b) 200 ml of whole blood collected from rats given dinalbuphine sebacoyl ester, and anticoagulant was added.

Sprague Dawley rats = assay: Analgesic effect, cold ethanol bath tail flick test, intramuscular, rats; format: in vivo, rat
Procedure: Sprague Dawley rats(175 to 225 g) were used. Each group consisted of 6 rats and each rats was injected once intramuscularly on the rear leg. […]
The dose for each rat was 25 micromole per kg, intramuscularly.
In the experiment, a circulating cold ethanol bath with a temperature maintained at -20° C. was set up. After dosing, the rat tail(1/3 from the tip) was immersed in the bath. The latency for the rat to flick its tail from the bath was measured to be the nociceptive threshold. The effect of various opium alkaloid preparations can be determined with this test.
The nociceptive effect can be calculated as follows: [formula]
35, 25, 15 minutes before dosing, Male Sprague Dawley rat(175-225 g) was tested to measure the basic response latency. The time to top the experiment was set at 40 seconds to prevent the tail from cold sore. No cold sore were found in 40 sec. Five minutes after the drug was given to the rat, the flick test was performed every 10 minutes or more. […]
(c) Dinalbuphine sebacoyl ester, dose was 7.8125 μ/kg, 31.25 μM/kg, 125 μM/kg.
(d) 50 mg/ml dinalbuphine sebacoyl ester parenteral dosage forms, dinalbuphine sebacoyl ester was prepared in sesame oil.

[4] = Pharmacokinetic study of long acting preparation in Beagle dogs; format: in vivo, Beagle dog; details: for CL/F: read-out: CLt (converted); for Vd/F: read-out: Vss
Procedure: Six Beagle dogs were used. Five Beagle dogs were intramuscularly injected with 30 mg/kg long acting sebacoyl dinalbuphine ester parenteral administration respectively, and another one was injection with 100 mg/kg long acting sebacoyl dinalbuphine ester oily parenteral administration. Blood samples were collected through the vein in front limb of dogs at 1, 2, 6, 24, 30, 48, 54, 72, 78, 96, 102, 120, 168, 192 hours. […] Relationship between time and concentration was analyzed by PCNONLIN computer program. Two compartment model and pharmacokinetic parameters were calculated to depicted absorption, distribution, metabolism, and excretion of drugs in dogs.

human body = assay: Analgesic duration of sebacoyl dinalbuphine calculated for the human body; format: in vivo; details: 125 μM/23 kg
Procedure: Therefore, the analgesic effect could be calculated on 4-5 days at 125 μM/23 kg to human body for sebacoyl dinalbuphine.
Besides, such parenteral volume was not ideal for a single dose. However, this invention made a development. By diluting a single dose of sebacoyl dinalbuphine in 7.15 ml sesame oil form, parenteral administration could give the analgesic effect maintained 4 to 5 days. In other words, the analgesic effect was extended […] for a single dose of intramuscularly injected sebacoyl dinalbuphine at only 7 ml oil vehicle.

[5] = Table 7, Dog 2, Dose 24.3 mg/kg
[6] = Table 7, Dog 2, Dose 81.0 mg/kg
[7] = dog, plasma, im, 24.3 mg/kg, Table 7, Dog 2, Dose 24.3 mg/kg
[8] = dog, plasma, im, 30 mg/kg, Mean of 5 dogs, 30 mg/kg i.m.
[9] = dog, plasma, im, 81 mg/kg, Table 7, Dog 2, Dose 81.0 mg/kg
[10] = individual Dog 1 to Dog 5, lines in this order, 30 mg/kg i.m., listed as SDN, 30 mg/kg

Compound: O=C(CCCCCCCCC(=O)Oc1ccc2c3c1O[C@H]1[C@@H](O)CC[C@@]4(O)[C@@H](C2)N(CC2CCC2)CC[C@]314)Oc1ccc2c3c1O[C@H]1[C@@H](O)CC[C@@]4(O)[C@@H](C2)N(CC2CCC2)CC[C@]314 [sebacoyl dinalbuphine ester]
- Elimination half-life ([1]; rat plasma): 2.8 min
- Elimination half-life ([1]; rat red blood cell): 2.3 ± 0.6 min
- Elimination half-life ([1]; rat whole blood): 2.2 ± 0.5 min
- converted time of 90% into Nalbuphine ([1]; rats): 10 min
- half life ([1]; rats, HPLC): 2.8 min
- Elimination half-life ([2]; rabbit plasma): 0.116 ± 0.0005 h
- Elimination half-life ([2]; rabbit red blood cell): 0.437 ± 0.08 h
- Elimination half-life ([2]; rabbit whole blood): 0.248 ± 0.0217 h
- converted time of 90% into Nalbuphine ([2]; rabbits): 25 min
- half life ([2]; rabbits, HPLC): 7.0 min
- Elimination half-life ([3]; dog plasma): 0.463 ± 0.0083 h
- Elimination half-life ([3]; dog red blood cell): 0.557 ± 0.0233 h
- Elimination half-life ([3]; dog whole blood): 0.508 ± 0.013 h
- converted time of 90% into Nalbuphine ([3]; dogs): 95 min
- half life ([3]; dogs, HPLC): 0.463 h
- dose dependence of analgesic effect (Sprague Dawley rats; FIG. 9, rats, intramuscular, 7.8125, 31.25, 125 μM/kg): proportional to the dose administered
- time to which 50% analgesic effect was extended (Sprague Dawley rats; FIG. 10, intramuscular, 125 μM/kg): 88 h
- analgesic effect relative to Nalbuphine hydrochloride (Sprague Dawley rats; intramuscular): 8.8 times
- duration of analgesic effect (Sprague Dawley rats; rats, intramuscular, dose below 125 μM/kg): 4 to 5 days
- A ([4]; Mean of 5 dogs, 30 mg/kg i.m.): 15.0 µg/mL
- AUMC ([4]; Mean of 5 dogs, 30 mg/kg i.m.): 983.2 h^2 μg/ml
- Abs. time ([4]; Mean of 5 dogs, 30 mg/kg i.m.): 92.6 h
- B ([4]; Mean of 5 dogs, 30 mg/kg i.m.): 0.32 µg/mL
- Vc ([4]; Mean of 5 dogs, 30 mg/kg i.m.): 14.84 L/kg
- k12 ([4]; Mean of 5 dogs, 30 mg/kg i.m.): 8.51 h⁻¹
- k21 ([4]; Mean of 5 dogs, 30 mg/kg i.m.): 0.28 h⁻¹
- ko ([4]; Mean of 5 dogs, 30 mg/kg i.m.): 180.6 µg/kg/h
- α ([4]; Mean of 5 dogs, 30 mg/kg i.m.): 9.98 h⁻¹
- A [4, 5]: 14.1 µg/mL
- AUC/D [4, 5]: 0.478 kg·h/mL
- AUMC [4, 5]: 915 h^2 ng/ml
- Abs. time [4, 5]: 95.6 h
- B [4, 5]: 0.22 µg/mL
- Vc [4, 5]: 10.21 L/kg
- k12 [4, 5]: 5.53 h⁻¹
- k21 [4, 5]: 0.13 h⁻¹
- ko [4, 5]: 149.9 µg/kg/h
- α [4, 5]: 6.85 h⁻¹
- A [4, 6]: 59.0 µg/mL
- AUC/D [4, 6]: 0.488 kg·h/mL
- AUMC [4, 6]: 5026 h^2 ng/ml
- Abs. time [4, 6]: 168.0 h
- B [4, 6]: 0.51 µg/mL
- Vc [4, 6]: 10.21 L/kg
- k12 [4, 6]: 8.99 h⁻¹
- k21 [4, 6]: 0.11 h⁻¹
- ko [4, 6]: 354.2 µg/kg/h
- α [4, 6]: 10.73 h⁻¹
- AUC [4, 7]: 11900 ng·h/mL
- CL/F [4, 7]: 1.21 mL/h/kg
- bioavailability ([4]; dog, plasma, im, 24.3 mg/kg, Table 7, Dog 2, Dose 24.3 mg/kg, read-out: F): 59%
- MRT ([4]; dog, plasma, im, 24.3 mg/kg, Table 7, Dog 2, Dose 24.3 mg/kg, read-out: MRT): 78.8 h
- Vd/F [4, 7]: 450 L/kg
- k el ([4]; dog, plasma, im, 24.3 mg/kg, Table 7, Dog 2, Dose 24.3 mg/kg, read-out: k10 (converted)): 0.000336 s⁻¹
- half-life ([4]; dog, plasma, im, 24.3 mg/kg, Table 7, Dog 2, Dose 24.3 mg/kg, read-out: t1/2,α (converted)): 0.1 h
- half-life ([4]; dog, plasma, im, 24.3 mg/kg, Table 7, Dog 2, Dose 24.3 mg/kg, read-out: t1/2,β (converted)): 30.6 h
- k el ([4]; dog, plasma, im, 24.3 mg/kg, Table 7, Dog 2, Dose 24.3 mg/kg, read-out: β (converted)): 6.39e-06 s⁻¹
- AUC [4, 8]: 13600 ng·h/mL
- CL/F [4, 8]: 1.22 mL/h/kg
- Cmax ([4]; dog, plasma, im, 30 mg/kg, Mean of 5 dogs, 30 mg/kg i.m., read-out: Cmax): 149 ng/mL
- bioavailability ([4]; dog, plasma, im, 30 mg/kg, Mean of 5 dogs, 30 mg/kg i.m., read-out: F): 63.1%
- MRT ([4]; dog, plasma, im, 30 mg/kg, Mean of 5 dogs, 30 mg/kg i.m., read-out: MRT): 73.2 h
- Vd/F [4, 8]: 574 L/kg
- k el ([4]; dog, plasma, im, 30 mg/kg, Mean of 5 dogs, 30 mg/kg i.m., read-out: k10 (converted)): 0.000339 s⁻¹
- half-life ([4]; dog, plasma, im, 30 mg/kg, Mean of 5 dogs, 30 mg/kg i.m., read-out: t1/2,α (converted)): 0.09 h
- half-life ([4]; dog, plasma, im, 30 mg/kg, Mean of 5 dogs, 30 mg/kg i.m., read-out: t1/2,β (converted)): 27.7 h
- k el ([4]; dog, plasma, im, 30 mg/kg, Mean of 5 dogs, 30 mg/kg i.m., read-out: β (converted)): 8.33e-06 s⁻¹
- AUC ([4]; dog, plasma, im, 30 mg/kg, individual Dog 1 to Dog 5, lines in this order, 30 mg/kg i.m.): 9730 ng·h/mL
- MRT ([4]; dog, plasma, im, 30 mg/kg, individual Dog 1 to Dog 5, lines in this order, 30 mg/kg i.m., read-out: MRT): 84.3 h
- AUC [4, 9]: 36200 ng·h/mL
- CL/F [4, 9]: 1.64 mL/h/kg
- Cmax ([4]; dog, plasma, im, 81 mg/kg, Table 7, Dog 2, Dose 81.0 mg/kg, read-out: Cmax): 204 ng/mL
- bioavailability ([4]; dog, plasma, im, 81 mg/kg, Table 7, Dog 2, Dose 81.0 mg/kg, read-out: F): 73.4%
- MRT ([4]; dog, plasma, im, 81 mg/kg, Table 7, Dog 2, Dose 81.0 mg/kg, read-out: MRT): 127 h
- Vd/F [4, 9]: 861 L/kg
- k el ([4]; dog, plasma, im, 81 mg/kg, Table 7, Dog 2, Dose 81.0 mg/kg, read-out: k10 (converted)): 0.000456 s⁻¹
- half-life ([4]; dog, plasma, im, 81 mg/kg, Table 7, Dog 2, Dose 81.0 mg/kg, read-out: t1/2,α (converted)): 0.07 h
- half-life ([4]; dog, plasma, im, 81 mg/kg, Table 7, Dog 2, Dose 81.0 mg/kg, read-out: t1/2,β (converted)): 41.9 h
- k el ([4]; dog, plasma, im, 81 mg/kg, Table 7, Dog 2, Dose 81.0 mg/kg, read-out: β (converted)): 4.72e-06 s⁻¹
- bioavailability ([4]; dog, plasma, im, Beagle dogs, intramuscular, read-out: bioavailability): ~63%
- half-life ([4]; dog, plasma, im, Beagle dogs, intramuscular, read-out: half life for excretion (converted)): ~30 h
- A [4, 10]: 20.9 μg/ml and 14.1 μg/ml (2×) and 9.5 μg/ml and 16.5 μg/ml
- AUMC [4, 10]: 934.4 h^2 μg/ml and 915.0 h^2 μg/ml and 886.2 h^2 μg/ml and 1217.4 h^2 μg/ml and 1063.0 h^2 μg/ml
- Abs. time [4, 10]: 164.5 h and 95.6 h (2×) and 49.3 h and 58.0 h
- B [4, 10]: 0.46 µg/mL and 0.22 µg/mL and 0.32 µg/mL and 0.36 µg/mL and 0.21 µg/mL
- Cmax [4, 10]: 59 ng/mL and 112 ng/mL and 197 ng/mL and 255 ng/mL and 123 ng/mL
- F [4, 10]: 87.9% and 40.4% and 59.6% and 68.8%
- MRT [4, 10]: 61.1 h and 62.7 h and 79.1 h
- Vc [4, 10]: 13.88 L/kg and 10.21 L/kg and 14.95 L/kg and 10.65 L/kg and 24.50 L/kg
- Vss [4, 10]: 360.9 L/kg and 428.1 L/kg and 303.6 L/kg and 1325 L/kg
- k12 [4, 10]: 6.16 h⁻¹ and 5.53 h⁻¹ and 21.55 h⁻¹ and 3.89 h⁻¹ and 5.43 h⁻¹
- k21 [4, 10]: 0.25 h⁻¹ and 0.13 h⁻¹ and 0.78 h⁻¹ and 0.14 h⁻¹ and 0.10 h⁻¹
- ko [4, 10]: 129.9 µg/kg/h and 149.9 µg/kg/h and 199.1 µg/kg/h and 249.5 µg/kg/h and 174.9 µg/kg/h
- t1/2,β [4, 10]: 10.94 h and 30.61 h and 28.64 h and 30.99 h and 37.26 h
- α [4, 10]: 8.54 h⁻¹ and 6.85 h⁻¹ and 23.02 h⁻¹ and 4.76 h⁻¹ and 6.74 h⁻¹
- order of absorption ([4]; injection oil vehicle, intramuscular): zero order
- kinetic linearity with dose ([4]; two doses in the same dog): linear kinetic
- duration of analgesic effect calculated for human body (human body): 4 to 5 days
